For twelve compounds, TGI results are on record in PubChem BioAssay (NCI).

Holding throughout (test): inhibition of tumour cell growth, NCI panel, 48 h
Assay [1] concerns CAKI-1 renal.
In assay [2] the test system is HL-60(TB) leukemia.
Assay [3] concerns HOP-62 NSCLC.
The test system of assay [4] is HS 578T breast.
Assay [5] concerns HT29 colon.
The subject of assay [6] is IGROV1 ovarian.
For assay [7], the system named is K-562 leukemia.
Assay [8] concerns KM12 colon.
Assay [9] has as its system LOX IMVI melanoma.
The test system of assay [10] is MDA-MB-231 breast.
In assay [11] the test system is MDA-N.
The test system of assay [12] is NCI-H460 lung.
Assay [13] concerns OVCAR-3 ovarian.
For assay [14], the system named is OVCAR-4 ovarian.
In assay [15] the test system is PC-3 prostate.
The test system of assay [16] is RXF 393 renal.
Assay [17] relates to SK-MEL-28 melanoma.
In assay [18] the test system is SNB-75 CNS.
Assay [19] relates to U251 CNS.
Assay [20] deals with MDA-MB-435.

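Cells were grown in 96-well plates and exposed to each compound for 48 hours at five concentrations; endpoints were interpolated linearly between bracketing concentrations, or set to the highest concentration if not reached. TGI is the concentration that stops growth completely.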

Regarding `CNC(=O)N1N[C@H](c2ccccc2)[C@@H]1c1ccccc1`, the TGI in [1] was above 100 µM; in assay [2], above 100 µM; in assay [3], above 100 µM; in assay [4], above 100 µM; in assay [5] it was 32.3 µM; in [6], 56.4 µM. In addition, the TGI was 54.5 µM in assay [7]; 45.2 µM in assay [8]; 44.3 µM in assay [9]; above 100 µM in [10]; above 100 µM in assay [11]; 53.4 µM in assay [12]. Moreover, the TGI was 36.7 µM in [13]; above 100 µM in assay [14]; 99.1 µM in assay [15]; 36.6 µM in [16]; 40.7 µM in [17]; 92.2 µM in assay [18]. In assay [19], this compound registered a TGI of 43 µM.

`O=C(Nc1ccc2[nH]c(C(=O)N3CC(CCl)c4ccc([N+](=O)[O-])cc43)cc2c1)c1cc2ccccc2o1` (stereo unspecified): the TGI in [1], in [2], in [3], in assay [4], in [5] and in assay [6] was above 1100 µM each time. In addition, the TGI in assay [8], in assay [9], in [10], in [20], in [11] and in [12] was above 1100 µM in each case. Further, the TGI in assay [13], in [14], in assay [16], in assay [17] and in [19] was above 1100 µM throughout.

Consider `Cc1ccc(S(=O)(=O)NC(=O)Nc2cc(Cl)c(S(N)(=O)=O)cc2S(N)(=O)=O)cc1`, for which the TGI in assay [1], in assay [2], in assay [3], in [4], in [5] and in [6] was above 100 µM throughout. For the same compound, the TGI in assay [7], in assay [8], in assay [9], in [10], in assay [20] and in assay [11] was above 100 µM in each case. The TGI in assay [13], in assay [14], in assay [16], in assay [17], in [18] and in assay [19] was above 100 µM each time.

Regarding `C=C(CCC=C(C)C)C1CC=C(C)CC1` (stereo unspecified), the TGI in assay [1] was determined as 42.2 µM; in [3], 37.4 µM; in [4] it was 59 µM; in assay [6], 28.4 µM; in assay [8], 52.6 µM; in assay [9] it was 21.9 µM. Further, the TGI in assay [10] was 97.6 µM; in [20], 35.7 µM; in [11] it was 37.9 µM; in assay [12] it was 40.1 µM; in assay [13], 81.2 µM; in assay [16] it was 31.6 µM. Also, the TGI in assay [19] was 34.8 µM.

Consider `C=C(C)CCC1CC=[N+]([O-])OC1C(C)(C)C` (stereo unspecified), for which the TGI is 75.3 µM in assay [1]; 27.2 µM in assay [2]; above 100 µM in [3]; above 100 µM in assay [4]; above 100 µM in [5]; above 100 µM in assay [6]. Also, the TGI is above 100 µM in assay [7]; 64.8 µM in [8]; 40.3 µM in [9]; 66.8 µM in assay [10]; 40.7 µM in [20]; above 100 µM in assay [11]. The TGI in assay [12], in assay [13], in assay [16], in assay [18] and in assay [19] was above 100 µM throughout.

Regarding `CCC(=O)C(CCN1CCC(N2C(=O)C(CCC#N)c3ccccc32)CC1)(c1ccccc1)c1ccccc1` (stereo unspecified), the TGI in assay [1] worked out at 96.4 µM; in [2], 22.2 µM; in [3], 32.2 µM; in [4], 26.5 µM; in [5], 12.9 µM; in [6] it was 30.5 µM. For the same compound, the TGI in [7] came out at 23.1 µM; in assay [8], 28 µM; in assay [9], 27 µM; in assay [10] it was 20.8 µM; in [20] it was 17.6 µM; in [12], 26.9 µM. Moreover, the TGI is 22.9 µM in assay [13]; 43.2 µM in [15]; 16.2 µM in assay [16]; 34.9 µM in assay [17]; 31.7 µM in assay [18]; 27.8 µM in [19].

For the compound `C[C@@]1(OC(=O)c2cc([N+](=O)[O-])cc([N+](=O)[O-])c2)C[C@@H]2CCCC[C@@H]21`, the TGI in assay [1], in [2], in assay [3], in assay [4], in assay [5] and in assay [6] was above 100 µM each time. The TGI in assay [7], in [8], in assay [9], in [10], in assay [11] and in [12] was above 100 µM throughout. For the same compound, the TGI in assay [14], in assay [15], in [17], in assay [18] and in assay [19] was above 100 µM throughout.

As for `CN(CCNC(=S)c1cn(C)c2c1ccc1ccccc12)CCNC(=S)c1cn(C)c2c1ccc1ccccc12`, the TGI in [1], in [3], in assay [4], in [5], in [6] and in assay [7] was above 100 µM throughout. In addition, the TGI in [8], in assay [9], in assay [10], in [20], in assay [12] and in assay [13] was above 100 µM each time. The TGI in [14] was above 100 µM; in assay [15], above 100 µM; in [16] it was 7.47 µM; in assay [17], above 100 µM; in [18], above 100 µM; in [19], above 100 µM.

As to `COc1ccc(C(=O)Oc2c(C#N)sc3c2c(=O)n(-c2ccccc2)c(=S)n3-c2ccccc2)cc1`, the TGI in [1] amounted to 68.9 µM; in assay [2], 49.7 µM; in assay [3], 73.9 µM; in [4], 69.6 µM; in assay [5] it was 62 µM; in [6], 44.4 µM. Further, the TGI in assay [7] was above 100 µM; in assay [8], 54.6 µM; in [9], 46.2 µM; in assay [10], above 100 µM; in [20], 60.7 µM; in assay [12] it was above 100 µM. Besides, the TGI was 97.4 µM in assay [13]; 79 µM in [14]; 98.7 µM in assay [15]; 53.7 µM in assay [16]; above 100 µM in [17]; above 100 µM in assay [18]. The same compound gave a TGI in [19] above 100 µM.

For the compound `Cc1ccc(/C=C2\Cc3cc(C)c(C)cc3C2=O)c(C(=O)O)c1`, the TGI in assay [1], in assay [2], in [3], in assay [4], in assay [5] and in assay [6] was above 100 µM in each case. For the same compound, the TGI in [7], in [8], in assay [9], in [10], in assay [11] and in [12] was above 100 µM each time. In addition, the TGI in assay [13], in assay [15], in [16], in assay [17], in [18] and in assay [19] was above 100 µM in each case.

Consider `S=C(N/N=C/c1ccccn1)N1CCCCCC1`, for which the TGI in assay [4] is above 100 µM; in assay [5], above 44.2 µM; in assay [7], above 100 µM; in [8] it was 63.3 µM; in assay [9], 64.1 µM; in [20], 96.8 µM. For the same compound, the TGI is above 48.9 µM in [11]; 0.211 µM in [12]; 9.3 µM in assay [13]; 37 µM in assay [14]; above 100 µM in assay [15]; 5.01 µM in assay [16]. For the same compound, the TGI was above 100 µM in assay [17] and 0.987 µM in assay [18].

In the case of `c1ccc(C2=C(c3ccccc3)Sc3nnc(CCCCCCCCc4nnc5n4NC(c4ccccc4)=C(c4ccccc4)S5)n3N2)cc1`, the TGI in [1] was above 100 µM; in [2], 37.2 µM; in assay [3] it was above 100 µM; in [4] it was above 100 µM; in assay [5] it was above 100 µM; in assay [7] it was above 100 µM. Moreover, the TGI in assay [8], in assay [9], in assay [10], in assay [20], in [12] and in assay [13] was above 100 µM in each case. For the same compound, the TGI in assay [14], in [15], in [16], in assay [17], in assay [18] and in [19] was above 100 µM in each case.
